Data taken from patent US20260070945A1, “MACROCYCLIC IMMUNOMODULATORS” (Bristol-Myers Squibb Company, priority 2022, published 2026).
*1 amine or outer side, *2 acyl side, *3 side chain or, on linkers, in order; H or OH if unused. Where a SMILES comes first, the peptide text is derived from it. Bridges are numbered along the chain shown (N, C = ends). [ ]: non-standard residue; d: D form. The star is where a group is joined. ξ: configuration not given here. Phe(3-CF3) = N[C@@H](Cc1cccc(C(F)(F)F)c1)C(=O)O; Phe(4-COOH) = N[C@@H](Cc1ccc(C(=O)O)cc1)C(=O)O; Bip = N[C@@H](Cc1ccc(-c2ccccc2)cc1)C(=O)O; Phe(3-Me) = Cc1cccc(C[C@H](N)C(=O)O)c1; γGlu = O=C(O)[C@H](CCC(=O)[*:2])N[*:1]; Abu(3S-NH2) = C[C@H](N)[C@H](N)C(=O)O; NH(CH2)12COOH = O=C(O)CCCCCCCCCCCCN*; Val(3-OH) = CC(C)(O)[C@H](N)C(=O)O; mTyr = N[C@@H](Cc1cccc(O)c1)C(=O)O; aIle = CC[C@@H](C)[C@H](N)C(=O)O; hArg = N=C(N)NCCCC[C@H](N)C(=O)O; 4Pal = N[C@@H](Cc1ccncc1)C(=O)O; Cha = N[C@@H](CC1CCCCC1)C(=O)O; Cit = NC(=O)NCCC[C@H](N)C(=O)O; Ile(3ξ) = CCC(C)[C@H](N)C(=O)O; Thr(3ξ) = CC(O)[C@H](N)C(=O)O; hSer = N[C@@H](CCO)C(=O)O; Carboxymethyl = O=C(O)C*; NMeA = CN[C@@H](C)C(=O)O; Orn = NCCC[C@H](N)C(=O)O; Aun = NCCCCCCCCCCC(=O)O; Dab = NCC[C@H](N)C(=O)O; Dap = NC[C@H](N)C(=O)O; AEEA = NCCOCCOCC(=O)O

molecular target: T1, PD-1/PD-L1 interaction (PE-labeled human PD-L1-Ig binding to Jurkat cell line over-expressing human PD-1) (Homo sapiens, UniProt Q15116); assay: Jurkat-PD-1 Cell Binding High-Content Screening Assay (CBA); conditions: Jurkat-hPD-1 cells, PE-labeled PD-L1-Ig 20 nM final; read-out: Jurkat HPD1 PDL1 IC50
T1 construct: expressed in transfected cells; host or cells: Jurkat
Method in brief: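 High-content imaging read-out of PE-PD-L1-Ig binding (20 nM final, 1 h) to Jurkat-hPD-1 cells, after 2 h compound exposure at 37 °C in DMEM with 10% FCS. Nuclei counterstained with Hoechst 33342 after paraformaldehyde fixation.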

T1 sequence (Q15116 25-288): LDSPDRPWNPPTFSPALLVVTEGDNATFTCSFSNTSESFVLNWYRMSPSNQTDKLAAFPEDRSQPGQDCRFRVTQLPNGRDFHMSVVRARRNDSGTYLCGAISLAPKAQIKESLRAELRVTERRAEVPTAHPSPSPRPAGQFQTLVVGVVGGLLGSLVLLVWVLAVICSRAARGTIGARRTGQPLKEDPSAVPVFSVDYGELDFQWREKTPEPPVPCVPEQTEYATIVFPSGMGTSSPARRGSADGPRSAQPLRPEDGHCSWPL

| IC50 [nM] | Compound |
| --- | --- |
| 17.6 | CC(C)C[C@@H]1NC(=O)[C@H](Cc2c[nH]c3ccccc23)NC(=O)[C@H](CC(=O)O)NC(=O)[C@H](Cc2ccc(OCC(=O)O)cc2)NC(=O)[C@H](CCCCNC(=N)N)NC(=O)CSC[C@@H](C(=O)NCC(=O)N[C@@H](CCN)C(=O)NCCCCCCCCCCC(=O)O)NC(=O)[C@H](CO)NC(=O)[C@H](C(C)C)NC(=O)[C@H](CC2CCCCC2)NC(=O)[C@H](CCN)NC(=O)[C@@H](CC(C)C)NC(=O)[C@H](C)N(C)C(=O)[C@H](C(C)C)NC(=O)[C@H](Cc2ccc(-c3ccccc3)cc2)NC1=O [Example 2120] ({CH2CO}-[hArg]Y(Carboxymethyl)DWL[Bip]V[NMeA][dL][Dab][Cha]VSCG[Dab][Aun]-OH; thioether N-14) |
| 41.3 | Cc1cccc(C[C@@H]2NC(=O)[C@H](CC(=O)O)NC(=O)[C@H](Cc3ccc(C(=O)O)cc3)NC(=O)[C@H](Cc3ccc(OCC(=O)O)cc3)NC(=O)CSC[C@@H](C(=O)N[C@H](CC(N)=O)C(=O)NCCCCCCCCCCC(=O)O)NC(=O)[C@H](C(C)O)NC(=O)[C@H](C(C)C)NC(=O)[C@H](CC3CCCCC3)NC(=O)[C@H](CCN)NC(=O)[C@@H](CC(C)C)NC(=O)[C@H](C)N(C)C(=O)[C@H](C(C)C)NC(=O)[C@H](Cc3ccc(-c4ccccc4)cc3)NC(=O)[C@H](CC(C)C)NC2=O)c1 (stereo partly drawn) [Example 2326] ({CH2CO}-Y(Carboxymethyl)[Phe(4-COOH)]D[Phe(3-Me)]L[Bip]V[NMeA][dL][Dab][Cha]V[Thr(3ξ)]C[dN][Aun]-OH; thioether N-14) |
| 10.6 | CC(=O)NCCCC[C@@H]1NC(=O)[C@H](Cc2ccc(-c3ccccc3)cc2)NC(=O)[C@H](C(C)C)NC(=O)[C@H](Cc2cccc(C)c2)NC(=O)[C@H](CC(=O)O)NC(=O)[C@H](Cc2ccc(OCC(=O)O)cc2)NC(=O)[C@H](Cc2ccc(OCC(=O)O)cc2)NC(=O)CSC[C@@H](C(=O)NCCOCCOCC(=O)NCCCCCCCCCCC(=O)O)NC(=O)[C@H](CCO)NC(=O)[C@H](C(C)C)NC(=O)[C@H](CC2CCCCC2)NC(=O)[C@H](CCN)NC(=O)[C@@H](CC(C)C)NC(=O)[C@H](C)N(C)C1=O [Example 2222] ({CH2CO}-Y(Carboxymethyl)Y(Carboxymethyl)D[Phe(3-Me)]V[Bip]K(Ac)[NMeA][dL][Dab][Cha]V[hSer]C[AEEA][Aun]-OH; thioether N-14) |

Second part, the compound before the results:

| Compound | IC50 [nM] |
| --- | --- |
| CC(=O)NCCCC[C@@H]1NC(=O)[C@H](C(C)(C)O)NC(=O)[C@H](CC2CCCCC2)NC(=O)[C@H](CCN)NC(=O)[C@@H](CC(C)C)NC(=O)[C@H](C)N(C)C(=O)[C@H](CCC(N)=O)NC(=O)[C@H](Cc2ccc(-c3ccccc3)cc2)NC(=O)[C@H](Cc2ccc(C(=O)O)cc2)NC(=O)[C@H](Cc2cccc(C(F)(F)F)c2)NC(=O)[C@H](CC(=O)O)NC(=O)[C@H](Cc2ccc(OCC(=O)O)cc2)NC(=O)[C@H]([C@H](C)N)NC(=O)CSC[C@@H](C(=O)N[C@@H](CCN)C(=O)NCCOCCOCC(=O)N[C@@H](CCC(=O)NCCOCCOCC(=O)NCCCCCCCCCCCCC(=O)O)C(=O)O)NC1=O [Example 1202] ({CH2CO}-[Abu(3S-NH2)]Y(Carboxymethyl)D[Phe(3-CF3)][Phe(4-COOH)][Bip]Q[NMeA][dL][Dab][Cha][Val(3-OH)]K(Ac)C[Dab][AEEA][γGlu][AEEA]-{NH(CH2)12COOH}; thioether N-14) | 16 |
| Cc1cccc(C[C@@H]2NC(=O)[C@H](CC(=O)O)NC(=O)[C@H](Cc3ccc(C(=O)O)cc3)NC(=O)[C@H](Cc3ccc(OCC(=O)O)cc3)NC(=O)CSC[C@@H](C(=O)NCC(=O)NCCOCCOCC(=O)NCCCCCCCCCCC(=O)O)NC(=O)[C@H](CO)NC(=O)[C@H](C(C)C)NC(=O)[C@H](CC(C)C)NC(=O)[C@H](CC(N)=O)NC(=O)[C@@H](CC(C)C)NC(=O)[C@H](C)N(C)C(=O)[C@H](C(C)C)NC(=O)[C@H](Cc3ccc(-c4ccccc4)cc3)NC(=O)[C@H](CC(C)C)NC2=O)c1 [Example 1011] ({CH2CO}-Y(Carboxymethyl)[Phe(4-COOH)]D[Phe(3-Me)]L[Bip]V[NMeA][dL]NLVSCG[AEEA][Aun]-OH; thioether N-14) | 24.6 |
| CC[C@@H](C)[C@@H]1NC(=O)[C@H](Cc2ccc(-c3ccccc3)cc2)NC(=O)[C@H](C(C)C)NC(=O)[C@H](Cc2c[nH]c3ccccc23)NC(=O)[C@H](CC(=O)O)NC(=O)[C@H](Cc2ccc(OCC(=O)O)cc2)NC(=O)[C@H](Cc2ccncc2)NC(=O)CSC[C@@H](C(=O)N[C@H](CC(N)=O)C(=O)NCCOCCOCC(=O)N[C@@H](CCC(=O)NCCOCCOCC(=O)N[C@@H](CCC(=O)NCCOCCOCC(=O)N[C@@H](CCCN)C(=O)NCCCCCCCCCCC(=O)O)C(=O)O)C(=O)O)NC(=O)[C@H](CO)NC(=O)[C@H](C(C)C)NC(=O)[C@H](CC2CCCCC2)NC(=O)[C@H](CCN)NC(=O)[C@@H](CC(C)C)NC(=O)[C@H](C)N(C)C1=O [Example 2015] ({CH2CO}-[4Pal]Y(Carboxymethyl)DWV[Bip][aIle][NMeA][dL][Dab][Cha]VSC[dN][AEEA][γGlu][AEEA][γGlu][AEEA][Orn][Aun]-OH; thioether N-14) | 9.4 |
| Cc1cccc(C[C@@H]2NC(=O)[C@H](CC(=O)O)NC(=O)[C@H](Cc3ccc(OCC(=O)O)cc3)NC(=O)[C@H](CN)NC(=O)CSC[C@@H](C(=O)N[C@@H](CCN)C(=O)NCCCCCCCCCCC(=O)O)NC(=O)[C@H](CCCN)NC(=O)[C@H](C(C)C)NC(=O)[C@H](CC(C)C)NC(=O)[C@H](CCN)NC(=O)[C@@H](CC(C)C)NC(=O)[C@H](C)N(C)C(=O)[C@H](Cc3ccc(O)cc3)NC(=O)[C@H](Cc3ccc(-c4ccccc4)cc3)NC(=O)[C@H](Cc3ccc(O)cc3)NC2=O)c1 [Example 1255] ({CH2CO}-[Dap]Y(Carboxymethyl)D[Phe(3-Me)]Y[Bip]Y[NMeA][dL][Dab]LV[Orn]C[Dab][Aun]-OH; thioether N-14) | 206 |
| CC(=O)NCCCC[C@@H]1NC(=O)[C@H](C(C)(C)O)NC(=O)[C@H](CC2CCCCC2)NC(=O)[C@H](CCN)NC(=O)[C@@H](CC(C)C)NC(=O)[C@H](C)N(C)C(=O)[C@H](CCCNC(N)=O)NC(=O)[C@H](Cc2ccc(-c3ccccc3)cc2)NC(=O)[C@H](Cc2ccc(C(=O)O)cc2)NC(=O)[C@H](Cc2cccc(C(F)(F)F)c2)NC(=O)[C@H](CC(=O)O)NC(=O)[C@H](Cc2ccc(OCC(=O)O)cc2)NC(=O)[C@H](Cc2ccc(C(=O)O)cc2)NC(=O)CSC[C@@H](C(=O)N[C@@H](CCN)C(=O)NCCOCCOCC(=O)N[C@@H](CCC(=O)NCCOCCOCC(=O)NCCCCCCCCCCCCC(=O)O)C(=O)O)NC1=O [Example 1159] ({CH2CO}-[Phe(4-COOH)]Y(Carboxymethyl)D[Phe(3-CF3)][Phe(4-COOH)][Bip][Cit][NMeA][dL][Dab][Cha][Val(3-OH)]K(Ac)C[Dab][AEEA][γGlu][AEEA]-{NH(CH2)12COOH}; thioether N-14) | 46.4 |
| CC(C)C[C@H]1NC(=O)[C@H](C)N(C)C(=O)[C@H](Cc2ccc(O)cc2)NC(=O)[C@H](Cc2ccc(-c3ccccc3)cc2)NC(=O)[C@H](Cc2ccc(O)cc2)NC(=O)[C@H](Cc2cccc(O)c2)NC(=O)[C@H](CC(=O)O)NC(=O)[C@H](Cc2ccc(OCC(=O)O)cc2)NC(=O)[C@H](CN)NC(=O)CSC[C@@H](C(=O)N[C@@H](CCN)C(=O)NCCCCCCCCCCC(=O)O)NC(=O)[C@H](CCCN)NC(=O)[C@H](C(C)C)NC(=O)[C@H](CC2CCCCC2)NC(=O)[C@H](CCN)NC1=O [Example 1257] ({CH2CO}-[Dap]Y(Carboxymethyl)D[mTyr]Y[Bip]Y[NMeA][dL][Dab][Cha]V[Orn]C[Dab][Aun]-OH; thioether N-14) | 226 |

same assay, conditions: PE-labeled PD-L1-Ig 20 nM final, Jurkat-hPD-1 cells; read-out: Jurkat HPD1 PDL1 IC50

| IC50 [nM] | Compound |
| --- | --- |
| 19.1 | CC(=O)NCCCC[C@@H]1NC(=O)[C@H](C(C)C)NC(=O)[C@H](CC2CCCCC2)NC(=O)[C@H](CCN)NC(=O)[C@@H](CC(C)C)NC(=O)[C@H](C)N(C)C(=O)[C@H](CCC(N)=O)NC(=O)[C@H](Cc2ccc(-c3ccccc3)cc2)NC(=O)[C@H](C(C)C)NC(=O)[C@H](Cc2c[nH]c3ccccc23)NC(=O)[C@H](CC(=O)O)NC(=O)[C@H](Cc2ccc(OCC(=O)O)cc2)NC(=O)[C@H](Cc2ccncc2)NC(=O)CSC[C@@H](C(=O)N[C@@H](CCN)C(=O)NCCOCCOCC(=O)NCCCCCCCCCCC(=O)O)NC1=O [Example 2491] ({CH2CO}-[4Pal]Y(Carboxymethyl)DWV[Bip]Q[NMeA][dL][Dab][Cha]VK(Ac)C[Dab][AEEA][Aun]-OH; thioether N-14) |
| 393 | Cc1cccc(C[C@@H]2NC(=O)[C@H](CC(=O)O)NC(=O)[C@H](Cc3ccc(OCC(=O)O)cc3)NC(=O)[C@H](C(C)O)NC(=O)CSC[C@@H](C(=O)N[C@@H](CO)C(=O)NCCOCCOCC(=O)NCCCCCCCCCCC(=O)O)NC(=O)[C@H](CCC(=O)O)NC(=O)[C@H](C(C)(C)O)NC(=O)[C@H](CC3CCCCC3)NC(=O)[C@H](CCN)NC(=O)[C@@H](CC(C)C)NC(=O)[C@H](C)N(C)C(=O)[C@H](Cc3ccc(OCC(=O)O)cc3)NC(=O)[C@H](Cc3ccc(-c4ccccc4)cc3)NC(=O)[C@H](Cc3ccc(OCC(=O)O)cc3)NC2=O)c1 (stereo partly drawn) [Example 2507] ({CH2CO}-[Thr(3ξ)]Y(Carboxymethyl)D[Phe(3-Me)]Y(Carboxymethyl)[Bip]Y(Carboxymethyl)[NMeA][dL][Dab][Cha][Val(3-OH)]ECS[AEEA][Aun]-OH; thioether N-14) |
| 1 | CCC(C)[C@@H]1NC(=O)[C@H](Cc2ccc(-c3ccccc3)cc2)NC(=O)[C@H](C(C)C)NC(=O)[C@H](Cc2c[nH]c3ccccc23)NC(=O)[C@H](CC(=O)O)NC(=O)[C@H](Cc2ccc(C(=O)O)cc2)NC(=O)[C@H](Cc2cnc[nH]2)NC(=O)CSC[C@@H](C(=O)N[C@@H](CCN)C(=O)NCCOCCOCC(=O)NCCCCCCCCCCC(=O)O)NC(=O)[C@H](CCC(=O)O)NC(=O)[C@H](C(C)(C)O)NC(=O)[C@H](CC2CCCCC2)NC(=O)[C@H](CCN)NC(=O)[C@@H](CC(C)C)NC(=O)[C@H](C)N(C)C1=O (stereo partly drawn) [Example 2531] ({CH2CO}-H[Phe(4-COOH)]DWV[Bip][Ile(3ξ)][NMeA][dL][Dab][Cha][Val(3-OH)]EC[Dab][AEEA][Aun]-OH; thioether N-14) |
